Data on 1 compound can be found in US10807944B2, “HDAC inhibitor compounds and methods of treatment” (priority 2014, dated 2020).

This experiment relates to MDA-MB-231 cells. Put plainly: Global gene expression (Affymetrix Human Transcriptome Array 2.0) with Ingenuity Pathway Analysis. It is filed as cell-based. Conditions: 24 h; for Predicated activation state, Biological Functions / Predicated activation state, Upstream Regulators: 1 μM.

As to `CCCCNNC(=O)c1ccc(Br)cc1` [UF010, 4-bromo-N′-butylbenzohydrazide], the “Predicated activation state, Biological Functions” value is listed as “Activated” (Apoptosis); “Suppressed” (Cell cycle progression); “Suppressed” (Cell survival); “Activated” (Necrosis); “Suppressed” (Proliferation of cells); “Suppressed” (Repair of DNA). For the same compound, under “Transcription of RNA”, the “Predicated activation state, Biological Functions” value was “Suppressed”. In addition, the “Predicated activation state, Upstream Regulators” value (Butyric acid) is listed as “Activated”; the “Predicated activation state, Upstream Regulators” value (Cisplatin) is given as “Activated”; the “Predicated activation state, Upstream Regulators” value (ERK1/2) is reported as “Activated”; the “Predicated activation state, Upstream Regulators” value (HDAC1) is “Suppressed”; the “Predicated activation state, Upstream Regulators” value (HDAC2) is “Suppressed”; the “Predicated activation state, Upstream Regulators” value (KRAS) is given as “Suppressed”. The “Predicated activation state, Upstream Regulators” value by setting is: (MYCN) “Suppressed”; (Myc) “Suppressed”; (Rb1) “Activated”; (Romidepsin) “Activated”; (TP53) “Activated”; (Tributyrin (butyrate)) “Activated”. Further, the “Predicated activation state, Upstream Regulators” value reads like this: (Trichostatin A) “Activated”; (fulvestrant) “Activated”. Also, the “number of genes downregulated by […]” value (MDA-MB-231, 1 μM) came out at 68. In addition, where the note is “MDA-MB-231, 1 μM”, the “number of genes upregulated by […]” value was 115.
